# Measurements published in patent publication US20200368336A1, “METHOD FOR PREPARING PERSONALIZED CANCER VACCINE” (SHANGHAI JENOMED BIOTECH CO., LTD., priority 2017, published 2020).
# Test system: mouse MHC molecule (MHC class I molecules)
# Assay: predicted affinity of short peptide chain to mouse MHC molecule (correlation analysis software)
# Conditions: mutant vs wild-type
# Protocol: The tumor neoantigen of mice were analyzed by the following methods: mouse H-2 typing software was used to classify mouse H-2 molecules, and using software such as Sentieon TNscope, the DNA exome sequencing sequence of the peripheral blood mononuclear cells of cancer-bearing mice was used as a control to isolate tumor neoantigen from the sequencing sequence of CTC DNA exome of cancer-bearing mice, and the correlation analysis software was used to predict the affinity of the short peptide chain tumor neoantigen and its corresponding wild-type short peptide chain to the mouse MHC molecule.
sequence,measurement,value
KAIRNVLII [preferred tumor neoantigen peptide screened from CTC of cancer-bearing mice],affinity of neoantigen higher than that of corresponding wild-type short peptide chain,about 556 times
